This experiment deals with Gastrin-releasing peptide receptor (Homo sapiens, UniProt P30550). Description: Displacement of [125I-Tyr4]BN form BB2 receptor in human PC3 cells. Type of experiment: cell-based, PC-3. Background: Displacement assays read how much labelled ligand stays bound in the presence of the test substance.

pIC50: −log10 of the molar value.

In general, pIC50 refers to −log10 of the IC50, conventionally taken in molar units.

Chain of Gastrin-releasing peptide receptor (P30550 whole entry): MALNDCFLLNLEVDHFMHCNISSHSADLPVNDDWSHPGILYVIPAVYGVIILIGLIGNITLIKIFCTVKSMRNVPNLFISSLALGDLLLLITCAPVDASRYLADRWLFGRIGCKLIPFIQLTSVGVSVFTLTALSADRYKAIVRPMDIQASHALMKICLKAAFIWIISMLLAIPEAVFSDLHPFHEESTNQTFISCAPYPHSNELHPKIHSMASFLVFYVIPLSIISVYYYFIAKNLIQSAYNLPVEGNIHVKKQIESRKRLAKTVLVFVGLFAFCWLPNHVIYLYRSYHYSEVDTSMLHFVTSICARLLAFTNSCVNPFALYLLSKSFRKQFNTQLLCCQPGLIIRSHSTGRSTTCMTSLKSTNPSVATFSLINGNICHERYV

Molecule `CSCC[C@H](NC(=O)[C@H](CC(C)C)NC(=O)[C@H](Cc1cnc[nH]1)NC(=O)CNC(=O)[C@@H](NC(=O)[C@H](C)NC(=O)[C@H](Cc1c[nH]c2ccccc12)NC(=O)[C@H](CCC(N)=O)NC(=O)[C@H](CC(N)=O)NC(=O)CNC(=O)[C@H](CC(C)C)NC(=O)[C@H](CCCNC(=N)N)NC(=O)[C@H](CCC(N)=O)NC(=O)CCCCCNC(=O)[C@H](CS)NC(=O)CNC(=O)CN)C(C)C)C(N)=O` showed a pIC50 of 9.23. Regarding `CSCC[C@H](NC(=O)[C@H](CC(C)C)NC(=O)[C@H](Cc1cnc[nH]1)NC(=O)CNC(=O)[C@@H](NC(=O)[C@H](C)NC(=O)[C@H](Cc1c[nH]c2ccccc12)NC(=O)[C@H](CCC(N)=O)NC(=O)CCCCCNC(=O)[C@H](CS)NC(=O)CNC(=O)CN)C(C)C)C(N)=O`, the pIC50 is 8.84.

Values taken from ChEMBL document CHEMBL1137776, “Structural assessment and biological evaluation of two N3S bombesin derivatives” (J Med Chem, 2009).
